Here are results for eight compounds from ChEMBL document CHEMBL1201862, “PubChem BioAssay data set” (2004).

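How tested: cells in 96-well plates exposed to compound for 48 hours at five concentrations. Abbreviation: GI50, concentration required for 50% inhibition of growth.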 The source made the active and inactive calls. No stated cut-off is given here; in the data, active = GI50 up to about 1.1 µM and inactive = higher. Bounds are passed on as bounds.

Test systems include 786-0; BT-549; DU-145; HCT-116; HCT-15; K562; MDA-N; NCI-H226; NCI/ADR-RES; OVCAR-4; OVCAR-8; PC-3; SF-268; SF-539; SK-MEL-28; SK-MEL-5; SK-OV-3; SNB-19; UACC-257; HOP-92.
Holding throughout (assay): DTP human tumour cell line panel, 48 h

Broadly, the GI50 is the concentration at which growth is held to half of that of the control. Consider `COc1ccccc1C(C1=C(O)COC1=O)c1cc2c(cc1OC(C)=O)OCO2` (stereo not drawn), for which the GI50 is > 100 µM (inactive) in the assay on 786-0; > 100 µM (inactive) in the assay with BT-549; > 100 µM (inactive) in the assay with DU-145; > 100 µM (inactive) with HCT-116; more than 100 µM in the assay with HCT-15; > 100 µM (inactive) with K562. The GI50 in the assay on MDA-N, in the assay on NCI-H226, in the assay on NCI/ADR-RES, with OVCAR-4, in the assay on OVCAR-8 and with PC-3 was > 100 µM (inactive) throughout. For the same compound, the GI50 in the assay with SF-268, in the assay with SF-539, in the assay with SK-MEL-28, with SK-MEL-5, with SK-OV-3 and in the assay on SNB-19 was > 100 µM (inactive) throughout. The GI50 in the assay with UACC-257 was > 100 µM (inactive).
For `CC(C)(C)OC/C=C1\C(=O)O[C@H]2C[C@@H](O[Si](C)(C)C(C)(C)C)C[C@@H]12`, the GI50 in the assay on 786-0 was > 100 µM (inactive); in the assay with BT-549 it was > 100 µM (inactive); in the assay on DU-145, > 100 µM (inactive); with HCT-116 it was 26.4 µM (inactive); in the assay with HCT-15, more than 100 µM; with HOP-92, 36.4 µM (inactive). Further, the GI50 in the assay on K562 was 26.1 µM (inactive); with MDA-N, 90.4 µM (inactive); with NCI-H226, > 100 µM (inactive); with NCI/ADR-RES it was 88.1 µM (inactive); with OVCAR-4 it was 92.3 µM (inactive); in the assay with OVCAR-8 it was 81.1 µM (inactive). The GI50 was 66.5 µM (inactive) with PC-3; > 100 µM (inactive) in the assay with SF-268; > 100 µM (inactive) in the assay with SK-MEL-28; > 100 µM (inactive) in the assay with SK-MEL-5; > 100 µM (inactive) in the assay with SK-OV-3; > 100 µM (inactive) with SNB-19. Further, the GI50 with UACC-257 is 62.4 µM (inactive).
As for `Oc1ccc2c3c1OC1c4[nH]ncc4C[C@H]4[C@@H](C2)N(CC2CC2)CC[C@]314` (stereo partly drawn), the GI50 in the assay on 786-0 is > 100 µM (inactive); in the assay with BT-549, > 100 µM (inactive); in the assay on DU-145 it was > 100 µM (inactive); with HCT-116, > 100 µM (inactive); in the assay with HCT-15, more than 100 µM; with HOP-92, > 100 µM (inactive). In addition, the GI50 in the assay with K562 was 99.5 µM (inactive); in the assay on MDA-N, > 100 µM (inactive); with NCI-H226 it was > 100 µM (inactive); with NCI/ADR-RES, > 100 µM (inactive); with OVCAR-4, > 100 µM (inactive); with OVCAR-8, > 100 µM (inactive). Moreover, the GI50 in the assay with PC-3, in the assay on SF-268, in the assay on SK-MEL-28, in the assay with SK-MEL-5, in the assay on SK-OV-3 and in the assay with SNB-19 was > 100 µM (inactive) throughout. Moreover, the GI50 with UACC-257 is > 100 µM (inactive).
As to `CCOC(=O)c1c(-c2ccccc2)c(OC)cn1C`, the GI50 with 786-0 is > 10 µM (inactive); in the assay on BT-549, > 10 µM (inactive); with DU-145 it was > 10 µM (inactive); in the assay with HCT-116, > 10 µM (inactive); with HCT-15, more than 10 µM; with K562, > 10 µM (inactive). In addition, the GI50 in the assay on MDA-N, in the assay with NCI-H226, with NCI/ADR-RES, in the assay on OVCAR-4, with OVCAR-8 and with PC-3 was > 10 µM (inactive) throughout. Moreover, the GI50 with SF-268, with SF-539, in the assay on SK-MEL-28, in the assay on SK-MEL-5, in the assay on SK-OV-3 and in the assay with SNB-19 was > 10 µM (inactive) in each case. Moreover, in the assay with UACC-257, the GI50 is > 10 µM (inactive).
For `O=C1c2ccccc2C(=O)c2c(Nc3ccc4c5c(cccc35)C(=O)c3ccccc3-4)cccc21`, the GI50 with 786-0 was > 100 µM (inactive); in the assay with BT-549, > 100 µM (inactive); with DU-145 it was > 100 µM (inactive); with HCT-116, > 100 µM (inactive); in the assay with HCT-15, more than 100 µM; with HOP-92, > 100 µM (inactive). Further, the GI50 with K562, in the assay on MDA-N, in the assay with NCI-H226, in the assay on NCI/ADR-RES, in the assay on OVCAR-4 and with PC-3 was > 100 µM (inactive) throughout. Moreover, the GI50 in the assay with SF-268, in the assay on SK-MEL-5, with SNB-19 and with UACC-257 was > 100 µM (inactive) throughout.
Turning to `OB(O)c1ccccc1C#Cc1ccccc1B(O)O`, the GI50 was 28.4 µM (inactive) in the assay on 786-0; 12.2 µM (inactive) in the assay with BT-549; 15.9 µM (inactive) with DU-145; 18.1 µM (inactive) with HCT-116; 20.9 µM in the assay with HCT-15; 23.3 µM (inactive) with HOP-92. In addition, the GI50 in the assay on K562 was 38.3 µM (inactive); in the assay on MDA-N, 21.2 µM (inactive); in the assay on NCI/ADR-RES, 25.5 µM (inactive); in the assay on OVCAR-8, 22.6 µM (inactive); in the assay with PC-3, 22.1 µM (inactive); in the assay on SF-268, 11.5 µM (inactive). For the same compound, the GI50 was 18.4 µM (inactive) with SF-539; 35.6 µM (inactive) in the assay on SK-MEL-28; 14.8 µM (inactive) in the assay with SK-MEL-5; 24 µM (inactive) in the assay with SK-OV-3; 21.8 µM (inactive) in the assay with SNB-19; 0.55 µM (active) in the assay with UACC-257.
Regarding `CCCCCCCCCCCCCCCCOP(=O)(O)OP(=O)(O)OCC1OC(n2cnc3c(N)ncnc32)C(O)C1O` (stereo not drawn), the GI50 in the assay on 786-0 is 80.5 µM (inactive); in the assay with BT-549, 18.7 µM (inactive); in the assay on DU-145 it was 69.3 µM (inactive); with HCT-116, 45.5 µM (inactive); in the assay with HCT-15, more than 100 µM; with HOP-92 it was 19.1 µM (inactive). Besides, the GI50 was 46.8 µM (inactive) with K562; 75.9 µM (inactive) in the assay on MDA-N; 54.6 µM (inactive) with NCI-H226; 78.9 µM (inactive) in the assay with NCI/ADR-RES; > 100 µM (inactive) with OVCAR-4; 39.8 µM (inactive) in the assay on OVCAR-8. Besides, the GI50 in the assay on PC-3 was 38.2 µM (inactive); in the assay with SF-268 it was 73.8 µM (inactive); in the assay with SK-MEL-28 it was 24.5 µM (inactive); in the assay with SK-MEL-5 it was > 100 µM (inactive); in the assay with SK-OV-3, 33 µM (inactive); with SNB-19 it was 34 µM (inactive). In addition, the GI50 in the assay on UACC-257 is > 100 µM (inactive).
For `O=C1Nc2ccc(Cl)cc2C(=O)N2CCC[C@@H]12`, the GI50 in the assay on 786-0 was > 100 µM (inactive); with BT-549, > 100 µM (inactive); with DU-145, > 100 µM (inactive); in the assay with HCT-116, > 100 µM (inactive); with HCT-15 it was more than 100 µM; with HOP-92, > 100 µM (inactive). Moreover, the GI50 in the assay on K562, with MDA-N, in the assay on NCI-H226, with NCI/ADR-RES, with OVCAR-4 and in the assay on OVCAR-8 was > 100 µM (inactive) in each case. The GI50 in the assay with PC-3, in the assay with SF-268, in the assay on SK-MEL-28, in the assay on SK-MEL-5, in the assay on SK-OV-3 and in the assay on SNB-19 was > 100 µM (inactive) throughout. Also, the GI50 in the assay on UACC-257 was > 100 µM (inactive).
